Measured values from US5306720A, “Piperidine derivative and pharmaceutical composition” (priority 1985, dated 1994).
Where a name gives a salt, the structure may show the parent alone.

What follows are compounds tested against T1, acetylcholinesterase (Mus musculus, UniProt P21836) (assay: biochemical). Details: mouse brain homogenate; thiocholine method, absorbance at 412 nm; read-out: AChE inhibitory activity IC50.
T1 construct: Using a mouse brain homogenate as a source of acetylcholinesterase; from tissue; host or cells: mouse brain homogenate
Format: biochemical
Description: Acetylcholinesterase Inhibitory Action using Mouse Brain Homogenate
Using a mouse brain homogenate as a source of acetylcholinesterase, the esterase activity was measured by a thiocholine method. Acetylcholine as a substrate, the compound of the invention as a substance to test and 5,5'-dithio-bis(2-nitrobenzoic acid), called also DTNB, were added to the mouse brain homogenate. After incubation, thiocholine produced was reacted with DTNB to form a yellow product.

T1 sequence (P21836 32-614): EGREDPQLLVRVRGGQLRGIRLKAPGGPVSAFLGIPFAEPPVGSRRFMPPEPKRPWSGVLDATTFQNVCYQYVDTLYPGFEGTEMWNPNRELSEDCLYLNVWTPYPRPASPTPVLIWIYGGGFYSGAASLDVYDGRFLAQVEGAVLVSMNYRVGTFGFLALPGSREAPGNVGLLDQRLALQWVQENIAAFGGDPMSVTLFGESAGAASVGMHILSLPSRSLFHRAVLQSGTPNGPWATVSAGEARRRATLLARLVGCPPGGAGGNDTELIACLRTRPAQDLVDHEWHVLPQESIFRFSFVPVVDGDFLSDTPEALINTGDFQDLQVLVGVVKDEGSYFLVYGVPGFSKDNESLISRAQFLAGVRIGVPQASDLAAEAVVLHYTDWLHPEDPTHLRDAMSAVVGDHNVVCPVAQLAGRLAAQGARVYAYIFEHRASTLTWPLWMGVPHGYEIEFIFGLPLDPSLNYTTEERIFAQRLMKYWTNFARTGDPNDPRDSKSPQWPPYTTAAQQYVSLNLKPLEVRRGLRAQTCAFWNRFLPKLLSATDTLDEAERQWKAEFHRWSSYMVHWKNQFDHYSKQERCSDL

Structure (SMILES) | IC50 [nM]
CN(CCC1CCN(Cc2ccccc2)CC1)C(=O)c1ccc(S(=O)(=O)Cc2ccccc2)cc1 [Example 4, N-methyl-N-[4'-(1'-benzylpiperidine)ethyl]-4-benzylsulfonylbenzamide, hydrochloride] | 0.6
CN(CCC1CCN(Cc2ccccc2)CC1)C(=O)c1ccncc1 [Example 5, N-methyl-N-[4'-(1'-benzylpiperidyl)ethyl] isonicotinic acid amide hydrochloride] | 88
CN(CCC1CCN(Cc2ccccc2)CC1)C(=O)c1ccc(S(=O)(=O)C2CCCC2)cc1 [Example 6, N-methyl-N-[4'-(1'-benzylpiperidine)ethyl]-4-cyclopentylsulfonylbenzamide.hydrochloride] | 21
O=C1c2ccc([N+](=O)[O-])cc2C(=O)N1CCC1CCN(Cc2ccccc2)CC1 [Example 7, N-[2-(N'-benzylpiperidino-4)ethyl]-4-nitrophthalimide.hydrochloride] | 14
O=C1c2nccnc2C(=O)N1CCC1CCN(Cc2ccccc2)CC1 [Example 8, N-[2-(N'-benzylpiperidino-4)ethyl]-2,3-pyrazinedicarboxylic acid imide] | 80
O=C1c2cccc3cccc(c23)C(=O)N1CCC1CCN(Cc2ccccc2)CC1 [Example 9, N-[2-(N'-benzylpiperidino-4)ethyl]-1,8-naphthalimide] | 5.5
O=C(NCCC1CCN(Cc2ccccc2)CC1)c1ccc2c(c1)C(=O)c1ccccc1C2=O [Example 25] | 4.5
O=C(NCCC1CCN(Cc2ccccc2)CC1)c1ccc(C(=O)NCc2ccccc2)cc1 [Example 26] | 9
CN(CCC1CCN(Cc2ccccc2)CC1)C(=O)c1ccc(-c2ccccc2)cc1 [Example 32] | 4.3
CN(CCC1CCN(Cc2ccc(O)cc2)CC1)C(=O)c1ccc(S(=O)(=O)Cc2ccccc2)cc1 [Example 41] | 0.8
O=C1c2cccc([N+](=O)[O-])c2C(=O)N1CCC1CCN(Cc2ccccc2)CC1 [Example 47] | 9
CC(=O)Nc1ccc2c(c1)C(=O)N(CCC1CCN(Cc3ccccc3)CC1)C2=O [Example 50] | 2.8
O=C(NCc1ccccc1)c1ccc2c(c1)C(=O)N(CCC1CCN(Cc3ccccc3)CC1)C2=O [Example 51] | 2.2
CCN(CC)C(=O)c1ccc2c(c1)C(=O)N(CCC1CCN(Cc3ccccc3)CC1)C2=O [Example 52] | 1.5
O=C(c1ccccc1)c1ccc2c(c1)C(=O)N(CCC1CCN(Cc3ccccc3)CC1)C2=O [Example 53] | 2.4
COc1cc2c(cc1Cl)C(=O)N(CCC1CCN(Cc3ccccc3)CC1)C2=O [Example 56] | 3.3
O=C1c2cc3ccccc3cc2C(=O)N1CCC1CCN(Cc2ccccc2)CC1 [Example 57] | 1.2
O=C1c2cccnc2C(=O)N1CCC1CCN(Cc2ccccc2)CC1 [Example 58] | 13
O=c1[nH]c2cc(Cl)ccc2c(=O)n1CCC1CCN(Cc2ccccc2)CC1 [Example 68] | 4.5
O=C(NCCC1CCN(Cc2ccccc2)CC1)c1ccc([N+](=O)[O-])cc1 [Example 71] | 55
O=C(NCCC1CCN(Cc2ccccc2)CC1)c1ccc(SCc2ccccc2)cc1 [Example 88] | 49
O=C(Nc1ccc2c(c1)C(=O)N(CCC1CCN(Cc3ccccc3)CC1)C2=O)c1ccccc1 [Example 111] | 0.88
O=c1c2cc3c(=O)n(CCC4CCN(Cc5ccccc5)CC4)c(=O)c3cc2c(=O)n1CCC1CCN(Cc2ccccc2)CC1 [Example 112] | 0.15
Cc1ccc2[nH]c(=O)n(CCC3CCN(Cc4ccccc4)CC3)c(=O)c2c1 [Example 113] | 4.7
O=C(NCCC1CCN(Cc2ccccc2)CC1)c1ccc(SCCl)cc1 [Example 115] | 6.7
O=C1c2ccc(Cl)cc2C(=O)N1CCC1CCN(Cc2ccccc2)CC1 [Example 133] | 7.9

Same assay, conditions: read-out: AChE inhibitory activity IC50

Structure (SMILES) | IC50 [nM]
COc1ccc2c(c1)C(=O)N(CCC1CCN(Cc3ccccc3)CC1)C2=O [Example 54] | 8

These compounds were tested on ddY male mouse (assay: Acute Toxicity Test for ddY Male Mouse). Details: oral to mouse, 100 mg (mg/kg), ddY male mice.
Format: in vivo
Description: Acute Toxicity Test for ddY Male Mouse
Acute toxicity test was carried out using ddY male mice.

Structure (SMILES) | number of deaths / number of animals used, 100 mg
CN(CCC1CCN(Cc2ccccc2)CC1)C(=O)c1ccc(S(=O)(=O)Cc2ccccc2)cc1 [Example 4, N-methyl-N-[4'-(1'-benzylpiperidine)ethyl]-4-benzylsulfonylbenzamide, hydrochloride] | 0/3
CN(CCC1CCN(Cc2ccccc2)CC1)C(=O)c1ccncc1 [Example 5, N-methyl-N-[4'-(1'-benzylpiperidyl)ethyl] isonicotinic acid amide hydrochloride] | 1/4
O=c1[nH]c2ccccc2c(=O)n1CCC1CCN(Cc2ccccc2)CC1 [Example 10, 3-[2-(1-benzyl-4-piperidino)ethyl]-2,4-(1H,3H)-quinazolidione.hydrochloride] | 3/4

Same assay, conditions: oral to mouse, 300 mg (mg/kg), ddY male mice

Structure (SMILES) | number of deaths / number of animals used, 300 mg
CN(CCC1CCN(Cc2ccccc2)CC1)C(=O)c1ccc(S(=O)(=O)Cc2ccccc2)cc1 [Example 4, N-methyl-N-[4'-(1'-benzylpiperidine)ethyl]-4-benzylsulfonylbenzamide, hydrochloride] | 2/4
CN(CCC1CCN(Cc2ccccc2)CC1)C(=O)c1ccncc1 [Example 5, N-methyl-N-[4'-(1'-benzylpiperidyl)ethyl] isonicotinic acid amide hydrochloride] | 4/4
O=C1c2ccc([N+](=O)[O-])cc2C(=O)N1CCC1CCN(Cc2ccccc2)CC1 [Example 7, N-[2-(N'-benzylpiperidino-4)ethyl]-4-nitrophthalimide.hydrochloride] | 0/3
